# Assays:
# human CCR2 = molecular target: T1, human CCR2 (Homo sapiens, UniProt P41597); assay: Functional Ca2+ release test (B-1); type: cell-based; conditions: Chem-1 cell line transfected with human CCR2; 50% inhibition of the MCP-1 effect, MCP-1 at EC50 (about 5 nM); in some cases means of several determinations
# T1 construct: host or cells: Chem-1 cell line
# T1 sequence (P41597 1-360 isoform P41597-2): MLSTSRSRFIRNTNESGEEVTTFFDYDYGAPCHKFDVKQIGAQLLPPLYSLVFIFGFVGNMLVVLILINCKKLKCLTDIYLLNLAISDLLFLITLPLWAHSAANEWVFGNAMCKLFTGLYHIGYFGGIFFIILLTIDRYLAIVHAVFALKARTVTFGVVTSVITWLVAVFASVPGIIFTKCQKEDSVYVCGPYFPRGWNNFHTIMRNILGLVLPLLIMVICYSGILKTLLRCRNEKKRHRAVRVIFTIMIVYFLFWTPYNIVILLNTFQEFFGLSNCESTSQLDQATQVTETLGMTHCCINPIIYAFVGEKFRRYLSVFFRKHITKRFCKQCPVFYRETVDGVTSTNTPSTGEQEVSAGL
# Experimental: The antagonistic action of test substances on CCR2 was determined in a functional Ca^2+ release test. Binding of CCL2/MCP-1 to CCR2 leads to a change in the conformation of the receptor resulting in Gi/Gq protein activation and intracellular signal cascade. This involves, inter alia, an intracellular Ca^2+ release. The test cell used was a Chem-1 cell line transfected with human CCR2 (ChemiSCREEN™ CCR2B Calcium-Optimized FLIPR Cell Line, Merck Millipore).
# (§1) The test substances were dissolved in dimethyl sulphoxide (DMSO) at a concentration of 10 mM and serially diluted with DMSO in steps of 1:3.16 for a 10-point dose/activity analysis. According to the desired test concentrations, the substances were pre-diluted in Tyrode with 2 mM CaCl2 and 0.05% BSA.
# The cells, cultivated in DMEM high glucose [supplemented with 10% FCS, 1 mM pyruvate, 15 mM HEPES, 500 μg/ml geniticin and non-essential amino acids (NEAA)], were sown at 5000 cells/25 μl in 384 well, μCLEAR/black cell culture plates from Greiner (#781092) and incubated at 37° C. for 24 h. The sowing medium consisted of DMEM high glucose [supplemented with 5% FCS, 1 mM pyruvate, 15 mM HEPES, 50 U/ml penicillin, 50 μg/ml streptomycin and non-essential amino acids (NEAA)]. The medium was then removed and the cells were charged for 60 min at 37° C. with Fluo-4 dye [25 μl Tyrode with 3 μM Fluo-4 AM (1 mM DMSO stock solution), 0.4 mg/ml Brilliant Black, 2.5 mM probenicid, 0.03% Pluronic F-127]. The cells were pre-incubated for 10 min with 10 μl of the test substances diluted in buffer, and 20 μl of agonist solution (MCP-1 in Tyrode with 0.05% BSA) were then added. MCP-1 was employed at the concentration which corresponds to the EC50 which had been determined in a preliminary test (usually about 5 nM). Ca^2+ release was monitored over a period of 120 s in 1 s increments in a proprietary fluorescence imaging reader. The molar concentration of the test substance which caused 50% inhibition of the MCP-1 effect (IC50) was determined using a 4-parameter logistic function (Hill function).
# murine CCR2 = molecular target: T2, murine CCR2 (Mus musculus, UniProt P51683); assay: Functional β-arrestin recruiting test with murine MCP-1 (B-2b); type: cell-based; conditions: U2OS β-arrestin cell line transfected with murine CCR2; agonist murine MCP-1; in some cases means of several determinations
# T2 construct: host or cells: U2OS β-arrestin cell line
# Experimental: The antagonistic action of test substances on CCR2 was determined in a β-arrestin test. The PathHunter β-arrestin GPCR test system (DiscoveRx Corporation, Ltd.) is a cell-based functional method for detecting binding of β-arrestin to an activated receptor. The molecular basis is a […] complementation measured by the enzymatic conversion of a chemiluminescent substrate. The test cell used was a U2OS β-arrestin cell line transfected with murine CCR2 (93-0543C3, DiscoveRx Corporation, Ltd.).
# as §1
# The cells, cultivated in MEM Eagle (supplemented with 10% FCS, 50 U/ml of penicillin, 50 μg/ml of streptomycin, 250 μg/ml of hygromycin and 500 μg/ml of geniticin), were sown at 2000 cells/25 μl in 384 well, μCLEAR/black cell culture plates from Greiner (#781092) and incubated at 37° C. for 24 h. The sowing medium consisted of Opti-MEM (supplemented with 1% FCS, 50 U/ml of penicillin and 50 μg/ml of streptomycin). The cells were pre-incubated for 10 min with 10 μl of the test substances diluted in buffer, and 10 μl of agonist solution [human MCP-1 (PeproTech, #300-04) in Tyrode with 0.05% BSA) were then added. The human MCP-1 was employed at the concentration which corresponds to the EC50 which had been determined in a preliminary test (usually about 3 nM). After 90 min of incubation at 37° C., the solution was removed, and recruitment of β-arrestin to CCR2 was detected with the aid of the PathHunter detection reagent (93-001, DiscoveRx Corporation, Ltd.) according to the instructions of the manufacturer. Luminescence was measured after an incubation time of 60 min using a proprietary luminescence imaging measuring instrument. The molar concentration of the test substance which caused 50% inhibition of the MCP-1 effect (IC50) was determined using a 4-parameter logistic function (Hill function).
# The test was carried out in a manner identical to that described above under B-2a, but using murine MCP-1 (PeproTech, #250-10) as agonist.
# T2 sequence (P51683 whole entry): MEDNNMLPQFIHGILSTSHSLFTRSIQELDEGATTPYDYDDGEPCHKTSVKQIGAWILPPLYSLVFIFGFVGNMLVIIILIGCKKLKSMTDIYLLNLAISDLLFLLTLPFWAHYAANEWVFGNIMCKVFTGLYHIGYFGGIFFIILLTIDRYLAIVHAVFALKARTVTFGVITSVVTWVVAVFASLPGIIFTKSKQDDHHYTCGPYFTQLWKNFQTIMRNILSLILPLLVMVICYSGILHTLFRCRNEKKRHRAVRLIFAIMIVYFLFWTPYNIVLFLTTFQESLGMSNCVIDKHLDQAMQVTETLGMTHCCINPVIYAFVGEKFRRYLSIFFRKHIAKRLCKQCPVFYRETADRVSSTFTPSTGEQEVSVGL
Structure (SMILES),IC50 (human CCR2) [nM],IC50 (murine CCR2) [nM]
CSc1cccnc1-c1nc(C(F)(F)F)c(Oc2ccc(Cl)c(C(F)(F)F)c2)c(=O)[nH]1 [Example 114],0.1,6.1
"CSc1cccnc1-c1nc(C(F)(F)F)c(Oc2ccc(Cl)c(Cl)c2)c(=O)[nH]1 [Example 115, 5-(3,4-dichlorophenoxy)-2-[3-(methylsulphanyl)pyridin-2-yl]-6-(trifluoromethyl)pyrimidin-4(3H)-one]",0.2,7.6
COc1nccnc1-c1nc(C(F)(F)F)c(Oc2ccc(Cl)c(C(F)(F)F)c2)c(=O)[nH]1 [Example 116],0.3,37
"COc1nccnc1-c1nc(C(F)(F)F)c(Oc2ccc(Cl)c(Cl)c2)c(=O)[nH]1 [Example 117, 5-(3,4-dichlorophenoxy)-2-(3-methoxypyrazin-2-yl)-6-(trifluoromethyl)pyrimidin-4(3H)-one]",0.3,36
"O=c1[nH]c(-c2cccnn2)nc(C(F)(F)F)c1Oc1ccc(Cl)c(C(F)(F)F)c1 [Example 118, 5-[4-chloro-3-(trifluoromethyl)phenoxy]-2-(pyridazin-3-yl)-6-(trifluoromethyl)pyrimidin-4(3H)-one]",0.4,73
"COc1ccc(-c2nc(C(F)(F)F)c(Oc3ccc(Cl)c(C(F)(F)F)c3)c(=O)[nH]2)nc1 [Example 119, 5-[4-chloro-3-(trifluoromethyl)phenoxy]-2-(5-methoxypyridin-2-yl)-6-(trifluoromethyl)pyrimidin-4(3H)-one]",0.4,185
"COc1cncnc1-c1nc(C(F)(F)F)c(Oc2ccc(Cl)c(C(F)(F)F)c2)c(=O)[nH]1 [Example 120, 5-[4-chloro-3-(trifluoromethyl)phenoxy]-5′-methoxy-6-(trifluoromethyl)-2,4′-bipyrimidin-4(3H)-one]",0.5,44
"Nc1ccc(-c2nc(C(F)(F)F)c(Oc3ccc(Cl)c(Cl)c3)c(=O)[nH]2)nn1 [Example 121, 2-(6-aminopyridazin-3-yl)-5-(3,4-dichlorophenoxy)-6-(trifluoromethyl)pyrimidin-4(3H)-one]",0.5,149
"COc1cc(OC)nc(-c2nc(C(F)(F)F)c(Oc3ccc(Cl)c(C(F)(F)F)c3)c(=O)[nH]2)n1 [Example 122, 5-[4-chloro-3-(trifluoromethyl)phenoxy]-4′,6′-dimethoxy-6-(trifluoromethyl)-2,2′-bipyrimidin-4(3H)-one]",0.6,164
"Nc1ccc(-c2nc(C(F)(F)F)c(Oc3ccc(Cl)c(Cl)c3)c(=O)[nH]2)nc1 [Example 123, 2-(5-aminopyridin-2-yl)-5-(3,4-dichlorophenoxy)-6-(trifluoromethyl)pyrimidin-4(3H)-one]",0.6,28
"O=c1[nH]c(-c2ccncc2Cl)nc(C(F)(F)F)c1Oc1ccc(Cl)c(Cl)c1 [Example 124, 2-(3-chloropyridin-4-yl)-5-(3,4-dichlorophenoxy)-6-(trifluoromethyl)pyrimidin-4(3H)-one]",2.9,320
"O=c1[nH]c(-c2cccnn2)nc(C(F)(F)F)c1Oc1ccc(Cl)c(Cl)c1 [Example 125, 5-(3,4-dichlorophenoxy)-2-(pyridazin-3-yl)-6-(trifluoromethyl)pyrimidin-4(3H)-one]",9.5,475
"O=c1[nH]c(-c2ccnnc2)nc(C(F)(F)F)c1Oc1ccc(Cl)c(Cl)c1 [Example 126, 5-(3,4-dichlorophenoxy)-2-(pyridazin-4-yl)-6-(trifluoromethyl)pyrimidin-4(3H)-one]",1120,13900
"O=c1[nH]c(-c2cnccn2)nc(C(F)(F)F)c1Oc1ccc(Cl)c(Cl)c1 [Example 127, 5-(3,4-dichlorophenoxy)-2-(pyrazin-2-yl)-6-(trifluoromethyl)pyrimidin-4(3H)-one]",2.1,372
